Measurements published in ChEMBL document CHEMBL1146671, “Non-peptide alpha v beta 3 antagonists. Part 7: 3-Substituted tetrahydro-naphthyridine derivatives” (Bioorg Med Chem Lett, 2004).

Legend:
[1] = molecular target: Integrin alpha-V/beta-3 (Homo sapiens, UniProt P05106+P06756); assay: Displacement of [125I]L-775,219 from human recombinant alphaV-beta3 integrin; type: protein-complex assay
[2] = Hammett constant was determined; type: functional
[3] = Bioavailability in dog; type: ADME, organism-based, Canis lupus familiaris; details: in vivo
[4] = Half-life of compound was determined in dogs; type: ADME, organism-based, Canis lupus familiaris; details: dog, in vivo
[5] = Clearance of compound was determined in dogs; type: ADME, organism-based, Canis lupus familiaris; details: dog, in vivo

Chain of Integrin alpha-V/beta-3 (P05106 27-788 limits assumed): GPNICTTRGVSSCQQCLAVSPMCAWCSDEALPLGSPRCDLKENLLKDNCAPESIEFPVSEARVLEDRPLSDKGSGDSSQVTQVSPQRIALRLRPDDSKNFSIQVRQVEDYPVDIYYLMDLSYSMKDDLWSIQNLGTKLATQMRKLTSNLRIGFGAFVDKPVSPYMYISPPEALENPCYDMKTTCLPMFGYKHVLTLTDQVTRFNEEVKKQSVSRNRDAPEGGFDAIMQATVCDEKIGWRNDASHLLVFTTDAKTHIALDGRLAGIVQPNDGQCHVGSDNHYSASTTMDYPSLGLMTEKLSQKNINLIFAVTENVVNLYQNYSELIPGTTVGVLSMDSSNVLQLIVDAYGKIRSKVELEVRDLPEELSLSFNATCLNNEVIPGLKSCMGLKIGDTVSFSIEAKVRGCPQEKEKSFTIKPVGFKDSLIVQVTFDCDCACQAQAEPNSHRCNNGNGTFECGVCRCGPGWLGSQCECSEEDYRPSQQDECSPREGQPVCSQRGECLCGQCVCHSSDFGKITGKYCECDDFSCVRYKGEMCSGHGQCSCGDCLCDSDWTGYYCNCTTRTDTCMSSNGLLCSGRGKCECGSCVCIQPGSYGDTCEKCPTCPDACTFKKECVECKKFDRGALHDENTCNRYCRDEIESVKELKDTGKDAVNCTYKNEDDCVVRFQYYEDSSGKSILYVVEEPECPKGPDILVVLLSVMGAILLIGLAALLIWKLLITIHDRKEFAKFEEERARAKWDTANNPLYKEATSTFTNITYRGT
Chain of Integrin alpha-V/beta-3 (P06756 31-889 limits assumed): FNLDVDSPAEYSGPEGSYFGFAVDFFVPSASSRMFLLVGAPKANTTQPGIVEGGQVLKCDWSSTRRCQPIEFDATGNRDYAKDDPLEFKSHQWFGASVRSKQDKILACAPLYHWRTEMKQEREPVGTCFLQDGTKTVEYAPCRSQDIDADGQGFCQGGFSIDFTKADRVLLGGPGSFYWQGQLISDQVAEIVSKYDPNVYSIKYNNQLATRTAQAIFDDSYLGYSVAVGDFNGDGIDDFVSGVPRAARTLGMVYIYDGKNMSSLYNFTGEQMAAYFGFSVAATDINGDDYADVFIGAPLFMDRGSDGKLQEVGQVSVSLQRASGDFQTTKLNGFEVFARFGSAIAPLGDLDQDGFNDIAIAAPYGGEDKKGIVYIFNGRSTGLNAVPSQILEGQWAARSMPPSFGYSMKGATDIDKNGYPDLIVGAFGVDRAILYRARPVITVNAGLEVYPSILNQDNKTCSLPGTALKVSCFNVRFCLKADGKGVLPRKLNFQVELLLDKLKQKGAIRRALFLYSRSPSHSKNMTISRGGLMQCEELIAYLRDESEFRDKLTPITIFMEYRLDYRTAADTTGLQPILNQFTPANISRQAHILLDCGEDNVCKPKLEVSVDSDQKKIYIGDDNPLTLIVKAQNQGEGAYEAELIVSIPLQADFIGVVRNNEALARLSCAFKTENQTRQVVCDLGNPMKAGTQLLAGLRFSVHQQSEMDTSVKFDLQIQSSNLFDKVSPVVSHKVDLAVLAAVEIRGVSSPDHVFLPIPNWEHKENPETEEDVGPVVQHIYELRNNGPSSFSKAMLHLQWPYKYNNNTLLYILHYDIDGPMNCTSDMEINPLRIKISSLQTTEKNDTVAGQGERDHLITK
Chain of Integrin alpha-V/beta-3 (P06756 891-1048 limits assumed): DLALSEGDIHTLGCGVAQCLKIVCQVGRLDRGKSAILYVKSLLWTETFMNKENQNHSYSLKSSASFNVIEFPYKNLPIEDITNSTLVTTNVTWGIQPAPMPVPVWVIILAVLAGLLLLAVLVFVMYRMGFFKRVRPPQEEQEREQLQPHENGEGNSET

`COc1ccc([C@H](CC(=O)O)N(C)C(=O)CCCCc2nc3c(cc2Br)CCCN3)cn1` gave an IC50 [1] of 2.3 nM and a Sigmap [2] of 0.26.
Work on `COc1ccc([C@H](CC(=O)O)N(C)C(=O)CCCCc2nc3c(cc2C#N)CCCN3)cn1` yielded an IC50 [1] of 16.5 nM and a Sigmap [2] of 0.71.
In the case of `COc1ccc([C@H](CC(=O)O)N(C)C(=O)CCCCc2ccc3c(n2)NCCC3)cn1`, the bioavailability [3] is reported as 76%, the half-life [4] is reported as 5.8 h and the IC50 [1] is reported as 0.7 nM. The Sigmap [2] was 0.
Compound `C=Cc1cc2c(nc1CCCCC(=O)N(C)[C@@H](CC(=O)O)c1ccc(OC)nc1)NCCC2` has an IC50 [1] of 0.3 nM and a Sigmap [2] of -0.14.
`COc1ccc([C@H](CC(=O)O)N(C)C(=O)CCCCc2nc3c(cc2N)CCCN3)cn1` gave an IC50 [1] of 0.4 nM and a Sigmap [2] of -0.3.
With `COc1ccc([C@H](CC(=O)O)N(C)C(=O)CCCCc2nc3c(cc2NC(C)=O)CCCN3)cn1` the IC50 [1] was 0.6 nM and the Sigmap [2] was 0.
Compound `COc1ccc([C@H](CC(=O)O)N(C)C(=O)CCCCc2nc3c(cc2NS(C)(=O)=O)CCCN3)cn1` has an IC50 [1] of 0.9 nM and a Sigmap [2] of 0.03.
For `COc1ccc([C@H](CC(=O)O)N(C)C(=O)CCCCc2nc3c(cc2C)CCCN3)cn1`, the bioavailability [3] was 65%, the half-life [4] was 4.9 h and the clearance [5] was 2.4 mL/min/kg. For the same compound, the IC50 [1] was 0.3 nM and the Sigmap [2] was -0.14.
`COc1ccc([C@H](CC(=O)O)N(C)C(=O)CCCCc2nc3c(cc2[N+](=O)[O-])CCCN3)cn1` showed an IC50 [1] of 36.7 nM and a Sigmap [2] of 0.81.
`COc1ccc([C@H](CC(=O)O)N(C)C(=O)CCCCc2nc3c(cc2-c2ccccc2)CCCN3)cn1` gave an IC50 [1] of 0.9 nM and a Sigmap [2] of 0.05.
